Measurements taken from ChEMBL document CHEMBL6115048, “Uncovering α-Selectivity for Liver X Receptor Agonists for Lipotoxic Cancer Therapies” (J Med Chem, 2025).

Assays:
[1] = molecular target: T1, Oxysterols receptor LXR-alpha (Homo sapiens, UniProt Q13133); test: Agonist activity at GST-tagged LXRalpha LBD (unknown origin) measured after 6 hrs in presence of fluorescein-TRAP220/DRIP-2 by TR-FRET assay
T1 sequence (Q13133 whole entry): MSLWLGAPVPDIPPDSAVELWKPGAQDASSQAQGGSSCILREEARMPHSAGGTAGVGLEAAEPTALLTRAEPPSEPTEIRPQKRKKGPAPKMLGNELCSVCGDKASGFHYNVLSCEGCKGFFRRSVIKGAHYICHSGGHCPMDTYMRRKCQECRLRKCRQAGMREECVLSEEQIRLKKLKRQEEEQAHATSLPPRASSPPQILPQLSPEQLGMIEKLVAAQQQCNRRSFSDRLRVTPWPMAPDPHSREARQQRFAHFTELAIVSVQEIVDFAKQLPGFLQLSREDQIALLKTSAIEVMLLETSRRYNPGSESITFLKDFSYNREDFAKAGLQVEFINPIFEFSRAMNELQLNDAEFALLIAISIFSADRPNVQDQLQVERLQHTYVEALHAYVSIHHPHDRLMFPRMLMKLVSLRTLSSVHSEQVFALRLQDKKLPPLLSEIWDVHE

[2] = molecular target: T2, Oxysterols receptor LXR-beta (Homo sapiens, UniProt P55055); test: Agonist activity at GST-tagged LXRbeta LBD (unknown origin) measured after 6 hrs in presence of fluorescein-TRAP220/DRIP-2 by TR-FRET assay
T2 sequence (P55055 whole entry): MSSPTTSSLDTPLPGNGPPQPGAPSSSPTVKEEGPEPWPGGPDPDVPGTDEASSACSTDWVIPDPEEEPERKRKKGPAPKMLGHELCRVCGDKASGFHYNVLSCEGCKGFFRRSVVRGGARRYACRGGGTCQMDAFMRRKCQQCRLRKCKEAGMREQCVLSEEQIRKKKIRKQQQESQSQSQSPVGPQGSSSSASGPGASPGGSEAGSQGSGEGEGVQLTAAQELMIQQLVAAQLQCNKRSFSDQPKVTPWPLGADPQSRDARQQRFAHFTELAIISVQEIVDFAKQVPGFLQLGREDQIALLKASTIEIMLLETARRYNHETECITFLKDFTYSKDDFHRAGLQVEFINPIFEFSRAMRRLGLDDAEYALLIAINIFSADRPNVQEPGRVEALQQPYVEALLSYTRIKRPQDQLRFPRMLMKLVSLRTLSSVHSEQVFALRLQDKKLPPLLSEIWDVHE

Hep 3B2 = test: Antiproliferative activity against human Hep3B cells assessed as reduction in cell viability measured after 5 days in presence of sorafenib by Celltiter-glo assay; assay type: functional, cell-based; settings: for EC50: 120 h
[3] = tested on: Hepatocellular carcinoma organoid; test: Antiproliferative activity against C57BL/6 mouse Hepatocellular carcinoma organoids harboring myristoylated Akt1 and overexpressing Myc assessed as reduction in cell viability measured after 5 days in presence of sorafenib by Celltiter-glo assay; assay type: functional, tissue-based; settings: Neoplasm, dose 1-5 µM, time 5.0 day

| EC50 [1] | EC50 [2] | Compound | EC50 (Hep 3B2) [µM] | Activity (Hep 3B2; time 5.0 day) | Activity [3] |
| --- | --- | --- | --- | --- | --- |
| Not_active | Not_active | CC(C)(C)OC(=O)NC1CCN(c2ccc(NC3=C(c4ccccc4)C(=O)N(Cc4ccccc4)C3=O)cc2)CC1 | – | – | – |
| Not_active | Not_active | CN1CCN(c2ccc(NC3=C(c4ccccc4)C(=O)N(Cc4ccccc4)C3=O)cc2)CC1 | – | – | – |
| – | – | O=C(O)Cc1cccc(OCCCN(Cc2cccc(C(F)(F)F)c2Cl)CC(c2ccccc2)c2ccccc2)c1 | 1.9 | Dose-dependent-effect | Dose-dependent-effect |
| – | – | COc1ccc(NC2=C(c3ccccc3)C(=O)N(Cc3ccccc3)C2=O)cc1 | 3.8 | – | – |
| – | – | O=S(=O)(c1ccccc1)N(CC(F)(F)F)c1ccc(C(O)(C(F)(F)F)C(F)(F)F)cc1 | – | – | Dose-dependent-effect |
